We go through five compounds from PMC8003416, “Modulation of Human Phenylalanine Hydroxylase by 3-Hydroxyquinolin-2(1H)-One Derivatives” (Biomolecules, 2021).

Entries after “also recorded” stand apart in the source; their conditions may differ.

Data set [1] has as its target T1, human phenylalanine hydroxylase (hPAH) (Homo sapiens, UniProt P00439).
T1 construct: Recombinant full-length wild-type (WT) hPAH was expressed in E. coli Top10 cells in fusion with a hexa-histidyl peptide; made in house; host or cells: E. coli Top10
T1 sequence (P00439 1-452): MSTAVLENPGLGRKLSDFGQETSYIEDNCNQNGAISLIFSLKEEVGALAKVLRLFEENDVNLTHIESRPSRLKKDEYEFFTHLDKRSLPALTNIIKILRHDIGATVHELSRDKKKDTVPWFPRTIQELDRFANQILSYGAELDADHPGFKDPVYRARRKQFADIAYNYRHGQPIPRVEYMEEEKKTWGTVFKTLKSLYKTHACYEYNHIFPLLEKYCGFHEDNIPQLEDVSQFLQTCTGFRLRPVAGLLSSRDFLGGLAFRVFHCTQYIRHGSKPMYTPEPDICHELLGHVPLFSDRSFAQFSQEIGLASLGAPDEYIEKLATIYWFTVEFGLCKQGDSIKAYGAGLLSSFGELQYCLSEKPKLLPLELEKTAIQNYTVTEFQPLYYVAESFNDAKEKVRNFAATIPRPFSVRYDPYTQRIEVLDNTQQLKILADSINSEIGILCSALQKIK
Description: Steady-state kinetics of hPAH for L-Phe. Type of data set: biochemical. Particulars: 100 μM 3HQ; for h (Hill coefficient) / ki (substrate inhibition) / S0.5 (L-Phe concentration at half-maximal activity): 75 μM BH4, 25 °C; for S0.5 (L-Phe concentration at half-maximal activity): Km for compounds 3 and 11 (Michaelis–Menten fits); for Vmax: 75 μM BH4, L-Phe 25 μM to 2.5 mM, 25 °C; for Activation Ratio (L-Phe activation): 100 μM substrate; for kcat/S0.5 (catalytic efficiency): calculated with hPAH subunit MM 55 kDa. The protocol: The hPAH activity was measured essentially as previously described. Briefly, the enzymatic reaction was performed in a 200 μL final volume, containing 250 mM Na-HEPES, pH 7, 0.1 mg/mL catalase (Sigma-Aldrich; St. Louis, MO, USA), 5 μg (final concentration of 0.112 μM of tetramer) of recombinant hPAH tetramers and 100 μM (NH4)2Fe(II)SO4. Using 100 μM L-Phe and 100 μM of tested compound, three experimental conditions were used to study the compounds’ modulatory effect, namely: non activated (NA), 3HQ-activated (3HQ-A) and substrate/3HQ-activated (Phe/3HQ-A) (Supplementary Figure S3). The reaction was started by addition of 75 μM BH4 (Schircks Laboratories; Bauma, Switzerland) prepared in 5 mM ascorbic acid. In the NA assay, the L-Phe substrate and tested compounds were added together with 75 µM BH4 at the start of the hydroxylation reaction. In the 3HQ-A condition, hPAH was pre-incubated with the tested compound for 4 min at 25 °C and the reaction was started by the addition of BH4 together with L-Phe. In the Phe/3HQ-A condition, hPAH was pre-incubated simultaneously with L-Phe and the tested compound (4 min, 25 °C). Appropriate control reactions were performed where the compounds were omitted and 1% DMSO was used. Kinetic parameters were determined using variable concentrations of L-Phe (25 to 2500 μM) and fixed concentrations of BH4 (75 μM) and tested compound (100 μM). After a 1-min incubation, the reaction was stopped, and the amount of L-Tyr produced was quantified by HPLC as previously described. The specific hPAH enzymatic activity is expressed as nmol of L-Tyr produced during 1 min per mg of protein (nmol L-Tyr.min^−1.mg^−1). The steady-state kinetic data were analyzed by nonlinear regression analysis using GraphPad Prism (La Jolla, CA, USA). Data was fitted to the modified Hill equation accounting for cooperative substrate binding as well as substrate inhibition (Equation (1)), to the modified Michaelis–Menten equation which accounts for substrate inhibition (Equation (2)) and to the non-modified Michaelis–Menten equation:v = (Vmax + Vi ([S]^x/Ki^x))/(1 + (K^h/[S]^h) + ([S]^x/Ki^x))(1) v = (Vmax [S])/(Km + [S](1 + [S]/Ki))(2)

For data set [2], the target named is T1, human phenylalanine hydroxylase (hPAH). Description: Differential scanning fluorimetry (thermal denaturation). Particulars: for ΔTm1 (regulatory domain) / ΔTm2 (catalytic domain): 100 μM compound vs 1% DMSO control, * S.D. < 0.01. The class given is binding. As to the method:
Thermal denaturation profiles of recombinant hPAH were obtained by differential scanning fluorimetry (DSF) in a C1000 Touch thermal cycler equipped with a CFX96 optical reaction module (Bio-Rad; Hercules, CA, USA) as previously described. Briefly, DSF assays (n = 3) were performed using 100 μg/mL hPAH tetramers (final concentration of 0.45 μM of tetramer), SYPRO Orange (5000-fold commercially available stock solution; Invitrogen; Carlsbad, CA, USA) at a 2.5-x final concentration and ramping the temperature from 20 to 90 °C, at 1 °C/min. Fluorescence data were acquired using the FRET channel. Data were processed using CFX Manager Software V3.0 (Bio-Rad) and the GraphPad Prism. Temperature scan curves were fitted to a biphasic dose–response function and the Tm values were obtained from the midpoint of the first (Tm1) and second transitions (Tm2) corresponding, respectively, to the thermal denaturation of the regulatory and catalytic domains. The Tm values in the presence of 3HQ were compared to those obtained in the presence of 1% DMSO (vehicle control) and a change in the Tm was considered significant when the |ΔTm| ≥ 2 °C [22].
For orientation: In DSF a fluorescence change marks the thermal transition of the protein.

Data set [3] has the same target. Description: Limited proteolysis of hPAH by trypsin. The conditions noted are these: 100 μM in 1% DMSO, 25 °C, trypsin:hPAH 1:200; control 0.41 ± 0.03. As to the method: Limited proteolysis of purified hPAH was performed as previously described, at 25 °C in SEC buffer and with a trypsin (Sigma-Aldrich) to hPAH ratio of 1:200 (by mass; final hPAH protein concentration 300 μg/mL), in the presence of 100 µM of 3HQ derivatives or 1% DMSO. Control assays were also performed in the presence of 100 μM and 1 mM L-Phe. At different time points (0 to 60 min), aliquots of the reaction were mixed with soybean trypsin inhibitor (Sigma-Aldrich) at a protease to inhibitor ratio of 1:1.5 (by mass) and analyzed by SDS-PAGE (10% polyacrylamide). The band corresponding to full-length hPAH was quantified by densitometric analysis using the Quantity One 1D software v4.6.3 (Bio-Rad). Data were fitted to a single exponential decay equation to obtain the decay constant of proteolysis (kP). Assays were performed in duplicate and data represent the mean ± SEM.

The target in data set [4] is T2, hPAH non-heme ferric center (Homo sapiens, UniProt P00439).
T2 construct: Recombinant full-length wild-type (WT) hPAH was expressed in E. coli Top10 cells in fusion with a hexa-histidyl peptide; made in house; host or cells: E. coli Top10
T2 sequence (P00439 1-452): T1 sequence (P00439 1-452)
The data set can be described thus: Electron paramagnetic resonance spectroscopy. Particulars: ≈100 μM hPAH monomer, equimolar 3HQ, 4K. The protocol: EPR spectra of hPAH (at ≈100 μM monomer) in the absence or presence of equimolar amounts of 3HQs were recorded at 4K in a Bruker EMX spectrometer (Billerica, MA, USA) equipped with an ESR-900 continuous flow helium cryostat from Oxford Instruments (Abingdon, Johnson, UK). Spectra were recorded for control samples containing 100 μM FeCl3 solutions incubated with equimolar amounts of 3HQs to evaluate direct binding of the compounds to free Fe^3+ in solution. Microwave frequency: 9.39 GHz; microwave power, 2 mW; modulation amplitude, 1 mT.

The mark [5] stands for this setting: 100 μM compound in 1% DMSO, control 43.4 ± 0.6.
Setting [6] is: 100 μM compound in 1% DMSO, control 53.5 ± 0.4.

With `COC(=O)CC[C@H](NC(=O)c1c(O)c(=O)[nH]c2ccc(OC(F)(F)F)cc12)C(=O)OC` [Compound 9], in data set [1], the “h (Hill coefficient)” value is 1.9 ± 0.8, the “ki (substrate inhibition)” value amounted to 23.3 ± 0.5 mM, the “S0.5 (L-Phe concentration at half-maximal activity)” value is reported as 108 ± 34 µM and the Vmax is listed as 3.94 ± 0.64 10^3 nmol Tyr.min^−1.mg^−1. Besides, in data set [1], the “Activation Ratio (L-Phe activation)” value is 1.4 and the “kcat/S0.5 (catalytic efficiency)” value is 2.0 µM⁻¹ min⁻¹. The “Tm1 (regulatory domain)” value in data set [2] (setting [5]) is 43.5 ± 0.1 °C. For the same compound, the “Tm2 (catalytic domain)” value in data set [2] (setting [6]) turned out to be 53.0 ± 0.1 °C. Moreover, in data set [2], the “ΔTm1 (regulatory domain)” value is “+0.2 ± 0.01 °C” and the “ΔTm2 (catalytic domain)” value is -0.5 ± 0.01 °C. Besides, the “proteolytic rate (kP)” value in data set [3] was found to be 0.38 ± 0.04 min⁻¹. Also, the “change of hPAH EPR spectrum” value in data set [4] is “less rhombic EPR signals appeared”.
For the compound `CCOC(=O)[C@H](Cc1ccccc1)NC(=O)c1c(O)c(=O)[nH]c2ccc(OC(F)(F)F)cc12` [Compound 3], in data set [1], the “effect on hPAH kinetic behaviour” value is on record as “weak competitive inhibitors; also recorded: loss of cooperativity”, the “S0.5 (L-Phe concentration at half-maximal activity)” value is on record as 206 ± 99 µM, the Vmax is 4.82 ± 0.64 10^3 nmol Tyr.min^−1.mg^−1 and the “Activation Ratio (L-Phe activation)” value stood at 1.3. Besides, the “kcat/S0.5 (catalytic efficiency)” value in data set [1] is 1.3 µM⁻¹ min⁻¹. Also, in data set [2] (setting [5]), the “Tm1 (regulatory domain)” value was 51.7 ± 0.4 °C. Further, the “Tm2 (catalytic domain)” value in data set [2] (setting [6]) worked out at 53.6 ± 0.2 °C. In data set [2], the “ΔTm1 (regulatory domain)” value was “+8.3 ± 0.06 °C” and the “ΔTm2 (catalytic domain)” value is “+0.1 ± 0.01 °C”. For the same compound, in data set [3], the “proteolytic rate (kP)” value is 0.29 ± 0.04 min⁻¹. Also, the “change of hPAH EPR spectrum” value in data set [4] is on record as “significant increase in the intensity of this main band at g = 4.25”.
In the case of `N[C@@H](Cc1ccccc1)C(=O)O` [L-Phe, L-phenylalanine, reference compound], in data set [2] (1 mM L-Phe, 1% DMSO), the “Tm1 (regulatory domain)” value turned out to be 51.0 ± 0.2 °C and the “Tm2 (catalytic domain)” value stood at 58.4 ± 0.04 °C. Moreover, the “proteolytic rate (kP)” value in data set [3] was 0.15 ± 0.01 min⁻¹.
With `O=C(NCCc1ccccc1)c1c(O)c(=O)[nH]c2ccc(OC(F)(F)F)cc12` [Compound 8], in data set [1], the “effect on hPAH kinetic behaviour” value is given as “weak competitive inhibitors”, the “h (Hill coefficient)” value is on record as 1.2 ± 0.3, the “ki (substrate inhibition)” value is recorded as 7.2 ± 0.2 mM and the “S0.5 (L-Phe concentration at half-maximal activity)” value is recorded as 115 ± 9 µM. Besides, in data set [1], the Vmax is on record as 4.38 ± 0.94 10^3 nmol Tyr.min^−1.mg^−1, the “Activation Ratio (L-Phe activation)” value is reported as 1.7 and the “kcat/S0.5 (catalytic efficiency)” value was 2.1 µM⁻¹ min⁻¹. For the same compound, the “Tm1 (regulatory domain)” value in data set [2] (setting [5]) was 43.3 ± 0.1 °C. The “Tm2 (catalytic domain)” value in data set [2] (setting [6]) worked out at 52.2 ± 0.3 °C. The “ΔTm2 (catalytic domain)” value in data set [2] is -1.3 ± 0.01 °C. For the same compound, in data set [3], the “proteolytic rate (kP)” value amounted to 0.30 ± 0.01 min⁻¹. Also, the “change of hPAH EPR spectrum” value in data set [4] was “less rhombic EPR signals appeared”.
On to `COC(=O)CNC(=O)c1c(O)c(=O)[nH]c2ccc(OC(F)(F)F)cc12` [Compound 11], for which, in data set [1], the “effect on hPAH kinetic behaviour” value is “loss of cooperativity”, the “ki (substrate inhibition)” value was found to be 2.5 ± 0.3 mM, the “S0.5 (L-Phe concentration at half-maximal activity)” value was 386 ± 97 µM and the Vmax is 7.75 ± 1.23 ** 10^3 nmol Tyr.min^−1.mg^−1. In addition, in data set [1], the “Activation Ratio (L-Phe activation)” value is 1.5. In addition, the “Tm1 (regulatory domain)” value in data set [2] (setting [5]) was 47.4 ± 0.1 °C. Besides, the “Tm2 (catalytic domain)” value in data set [2] (setting [6]) was 53.6 ± 0.2 °C. The “ΔTm1 (regulatory domain)” value in data set [2] is “+4.0 ± 0.01 °C”. Also, the “proteolytic rate (kP)” value in data set [3] stood at 0.41 ± 0.01 min⁻¹. In data set [4], the “change of hPAH EPR spectrum” value was “less rhombic EPR signals appeared”.
